# Patent US9339543B2, “Pharmaceutical compositions that inhibit disproportionation” (Merck Sharp & Dohme Corp., priority 2011, dated 2016)
# Columns and labels:
# [1] = aqueous; cited from earlier work
# [2] = XRPD of stressed pioglitazone HCl binary/acidified compacts (free base formation); assay type: physicochemical; conditions: for Inhibition of disproportionation via acidification (Table 6 and FIGS. 2 and 3): organic acid in a 1:1 weight ratio with the carboxylate excipient, NIR and XRPD; for Inhibition of disproportionation by organic acid (XRPD, FIG. 2): pioglitazone HCl compacts containing MgSt with organic acids, 40° C./75% RH open dish
# Procedure: (§1) An understanding of pioglitazone HCl salt disproportionation was obtained by studying each excipient individually. All of the API and excipient powders were gravimetrically dispensed into 1-dram glass vials using the Symyx Powdernium powder dispensing robot. Binary mixtures containing 250 mg of pioglitazone HCl salt and approximately 30 mg of the excipients were dispensed to create a 9:1 weight ratio mixture. Pharmaceutically relevant formulation matrix samples, or pseudo formulations, were also prepared. The compact target weight was 280 mg with a final composition of 45% of pioglitazone HCl salt, 25% avicel, 25% mannitol and 5% of the remaining excipients.
# (§2) Upon completion of the powder dispensing, the vials were removed from the robot and mixed using a Resodyn Acoustic Mixer (LabRAM). The powders were mixed for 30 seconds at 30% intensity to produce homogeneous mixtures. The powders were then poured from the DRAM vial into a ½ inch die. A single compact from each DRAM vial was manually compressed using a compression force of 2000-3000 lbs and a dwell time of 5 seconds. Compacts were stressed at 40° C./35% RH and 40° C./75% RH. The sample preparation and reference for each compact can be seen in Table 2.
# XRPD spectroscopy was also used to quantify the level of disproportionation in selected stressed samples of pioglitazone HCl. XRPD Spectroscopy is more sensitive to free base than NIR, making it suitable for samples with little or no disproportionation. The XRPD spectra were collected on the Panalytical X'pert Pro diffractometer with Cu Ka1 radition of 1.5406 Å in the transmission mode. The samples were scanned between a two theta range of 4 and 20° at a step size of 0.0167° for one hour at ambient conditions. The tube power used was 45 kV and 40 mA. In the XRPD pattern, the pioglitazone crystalline free base form has four specific peaks at 7.8weak, 9.1strong, 10.3strong and 15.1moderate 2-theta. The pioglitazone HCl form has a doublet peak centered at 8.6 2-theta.
# [3] = FT-NIR monitoring of loss of HCl salt in stressed pioglitazone HCl binary/acidified compacts; assay type: physicochemical; conditions: MgSt and organic acid compacts, 40° C./75% RH open dish
# Procedure: as §1, §2
# FT-NIR reflectance spectroscopy was used to monitor the loss of HCl salt throughout the binary and pseudo formulation studies. […]
# [4] = cited from earlier work
Molecule,Aq. Sol. [1] [g/mL],Inhibition of disproportionation via acidification (Table 6 and FIGS. 2 and 3) [2],"Inhibition of disproportionation by organic acid (XRPD, FIG. 2) [2]","Inhibition of disproportionation by organic acid (NIR, Table 6) [3]",pKa Values (first value) [4],pKa Values (second value) [4],pKa Values (third value) ([4]; third pKa printed in cell)
O=C(O)C(O)C(O)C(=O)O (stereo not shown) [Tartaric Acid],1.3,completely inhibited,successfully inhibit disproportionation,could inhibit disproportionation,3.0,4.2,
O=C(O)/C=C\C(=O)O [Maleic Acid],0.78,completely inhibited,successfully inhibit disproportionation,could inhibit disproportionation,,6.3,
O=C(O)/C=C/C(=O)O [Fumaric Acid],0.0063,not effective in inhibiting disproportionation,do not effectively inhibit disproportionation,,3.0,,
Citric Acid,,not effective in inhibiting disproportionation,do not effectively inhibit disproportionation,,3.2,4.8,6.4
O=C(O)C(=O)O [Oxalic Acid],0.14,not effective in inhibiting disproportionation,do not effectively inhibit disproportionation,,1.25,4.14,
